The source made the active and inactive calls. The calls are words filed in the database; no cut-off is given here.
Tests used:
[1] = target: T1, Dihydroorotate dehydrogenase (quinone), mitochondrial (Plasmodium falciparum (isolate 3D7)) (UniProt Q08210); assay: Inhibition of Plasmodium falciparum DHODH at 100 uM measured over 60 secs by DCIP dye based colorimetric assay relative to control; conditions: time > 60.0 sec
T1 sequence (whole entry): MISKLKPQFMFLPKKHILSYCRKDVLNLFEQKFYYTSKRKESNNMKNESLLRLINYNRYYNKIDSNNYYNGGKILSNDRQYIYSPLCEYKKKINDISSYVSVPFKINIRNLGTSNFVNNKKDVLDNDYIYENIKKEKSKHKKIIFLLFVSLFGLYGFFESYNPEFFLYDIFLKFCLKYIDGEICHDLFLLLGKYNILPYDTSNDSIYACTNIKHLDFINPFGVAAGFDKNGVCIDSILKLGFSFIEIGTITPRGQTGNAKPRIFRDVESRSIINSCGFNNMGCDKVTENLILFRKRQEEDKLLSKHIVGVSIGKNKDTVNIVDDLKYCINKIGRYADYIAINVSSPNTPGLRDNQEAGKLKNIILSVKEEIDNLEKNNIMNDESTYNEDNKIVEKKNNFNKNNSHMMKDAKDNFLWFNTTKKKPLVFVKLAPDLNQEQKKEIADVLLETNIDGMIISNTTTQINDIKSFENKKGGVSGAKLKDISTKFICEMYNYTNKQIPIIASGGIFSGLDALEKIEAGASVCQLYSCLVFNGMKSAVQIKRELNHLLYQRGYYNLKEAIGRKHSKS

[2] = target: T1, Dihydroorotate dehydrogenase (quinone), mitochondrial (Plasmodium falciparum (isolate 3D7)); assay: Inhibition of Plasmodium falciparum DHODH assessed as residual activity at 100 uM measured over 60 secs by DCIP dye based colorimetric assay relative to control; conditions: time > 60.0 sec
Plasmodium falciparum [3] = assay: Antiplasmodial activity against sorbitol-synchronized ring stage chloroquine sensitive Plasmodium falciparum 3D7 infected in erythrocytes measured after 48 hrs by SYBR green dye based fluorescence analysis; assay type: functional, organism-based; conditions: 3D7, Erythrocyte
Plasmodium falciparum [4] = assay: Antiplasmodial activity against sorbitol-synchronized ring stage 2-(1,1-difluoroethyl)-5-methyl-N-(4-(pentafluoro-l6-sulfaneyl)phenyl)-[1,2,4]triazolo[1,5-a]pyrimidin-7-amine resistant Plasmodium falciparum Dd2 infected in erythrocytes measured after 48 hrs by SYBR green dye based fluorescence analysis; assay type: functional, organism-based; conditions: Dd2, Erythrocyte
Plasmodium falciparum [5] = assay: (§1) Resistance index, ratio of IC50 for antiplasmodial activity against sorbitol-synchronized ring stage 2-(1,1-difluoroethyl)-5-methyl-N-(4-(pentafluoro-l6-sulfaneyl)phenyl)-[1,2,4]triazolo[1,5-a]pyrimidin-7-amine resistant Plasmodium falciparum Dd2 infected in erythrocytes to IC50 for antiplasmodial activity against sorbitol-synchronized ring stage chloroquine sensitive Plasmodium falciparum 3D7 infected in erythrocytes; assay type: functional
Plasmodium berghei = assay: Antiplasmodial activity against GFP-expressing Plasmodium berghei HSP70 infected in CD-1 mouse assessed as inhibition of ookinete formation at 10 uM measured after 22 hrs by giemsa staining based microscopic analysis; assay type: functional; conditions: read-out: INH
[6] = Selectivity index, ratio of CC50 for human HepG2 cells to IC50 for antiplasmodial activity against sorbitol-synchronized ring stage chloroquine sensitive Plasmodium falciparum 3D7 infected in erythrocytes; assay type: toxicity, cell-based; conditions: Plasmodium falciparum 3D7 in erythrocytes, read-out: Ratio CC50/IC50
[7] = Cytotoxicity against human HepG2 cells assessed as reduction in cell viability incubated for 72 hrs by MTT assay; assay type: toxicity, cell-based
[8] = target: T2, Dihydroorotate dehydrogenase (quinone), mitochondrial (Plasmodium falciparum (isolate 3D7), UniProt Q08210); assay: Inhibition of Plasmodium falciparum DHODH measured over 60 secs by DCIP dye based colorimetric assay
T2 sequence (Q08210 whole entry): T1 sequence (whole entry)

Plasmodium falciparum [9] = assay: (§2) Resistance index, ratio of IC50 for antiplasmodial activity against sorbitol-synchronized ring stage chloroquine, mefloquine and pyrimethamine resistant Plasmodium falciparum Dd2 harboring N86F/M74I/ N75E/K75T mutation in MDR1 gene, N51I/C59R/S108N mutation in DHFR gene and S436F/A437G/A613S mutation in DHPS gene infected in erythrocytes to IC50 for antiplasmodial activity against sorbitol-synchronized ring stage chloroquine sensitive Plasmodium falciparum 3D7 infected in erythrocytes; assay type: functional
Plasmodium falciparum [10] = assay: (§3) Antiplasmodial activity against sorbitol-synchronized ring stage chloroquine, mefloquine and pyrimethamine resistant Plasmodium falciparum Dd2 harboring N86F/M74I/ N75E/K75T mutation in MDR1 gene, N51I/C59R/S108N mutation in DHFR gene and S436F/A437G/A613S mutation in DHPS gene infected in erythrocytes measured after 48 hrs by SYBR green dye based fluorescence analysis; assay type: functional, organism-based; conditions: Dd2, Erythrocyte
Plasmodium falciparum [11] = assay: Antiplasmodial activity against GFP expressing sorbitol-synchronized ring stage laboratory adapted Plasmodium falciparum 3D7HT assessed as reduction in infectivity by measuring inhibition of gametocyte formation at 10 uM treated for 72 hrs followed by replacement with fresh media without compound for 24 hrs and measured on day 4 by giemsa staining based microscopic analysis; assay type: functional
Plasmodium falciparum [12] = assay: Antiplasmodial activity against Plasmodium falciparum infected in erythrocytes assessed as reduction in parasite growth at 500 nM measured until 24 hrs; assay type: functional, organism-based; conditions: Erythrocyte
[13] = Ratio of IC50 for Plasmodium falciparum infected in erythrocytes measured after 24 hrs by SYBR green dye based fluorescence assay to IC50 for Plasmodium falciparum infected in erythrocytes measured after 72 hrs by SYBR green dye based fluorescence assay; assay type: functional, Erythrocyte
Plasmodium falciparum [14] = assay: as §1, with “chloroquine” for “2-(1,1-difluoroethyl)-5-methyl-N-(4-(pentafluoro-l6-sulfaneyl)phenyl)-[1,2,4]triazolo[1,5-a]pyrimidin-7-amine”, “K1” for “Dd2”; assay type: functional
Plasmodium falciparum [15] = assay: Antiplasmodial activity against sorbitol-synchronized ring stage chloroquine resistant Plasmodium falciparum K1 infected in erythrocytes measured after 48 hrs by SYBR green dye based fluorescence analysis; assay type: functional, organism-based; conditions: K1, Erythrocyte
Plasmodium falciparum [16] = assay: Antiplasmodial activity against sorbitol-synchronized ring stage MMV848 resistant Plasmodium falciparum 3D7 infected in erythrocytes measured after 48 hrs by SYBR green dye based fluorescence analysis; assay type: functional, organism-based; conditions: 3D7, Erythrocyte
Plasmodium falciparum [17] = assay: as §3, with “atovaquone” for “chloroquine, mefloquine and pyrimethamine”, “TM90C6B” for “Dd2”, “Y268S mutation in CYTB gene, Y184F” for “N86F/M74I/ N75E/K75T”, “S436F/A437G/A581G” for “S436F/A437G/A613S”; assay type: functional, organism-based; conditions: Erythrocyte
Plasmodium falciparum [18] = assay: as §2, with “atovaquone” for “chloroquine, mefloquine and pyrimethamine”, “TM90C6B” for “Dd2”, “Y268S mutation in CYTB gene, Y184F” for “N86F/M74I/ N75E/K75T”, “S436F/A437G/A581G” for “S436F/A437G/A613S”; assay type: functional
Plasmodium falciparum [19] = assay: as §1, with “MMV848” for “2-(1,1-difluoroethyl)-5-methyl-N-(4-(pentafluoro-l6-sulfaneyl)phenyl)-[1,2,4]triazolo[1,5-a]pyrimidin-7-amine”, “3D7” for “Dd2”; assay type: functional
Plasmodium falciparum [20] = assay: Antiplasmodial activity against Plasmodium falciparum 3D7; assay type: functional, organism-based

Compound | inhibition [1] | Activity [2] | IC50 (Plasmodium falciparum [3]) | IC50 (Plasmodium falciparum [4]) | Ratio IC50 (Plasmodium falciparum [5]) | Percent inhibition of ookinete formation at 10 µM (Plasmodium berghei) | selectivity ratio [6] | CC50 at 72 h [7] | Ratio IC50 (Plasmodium falciparum [9]) | IC50 (Plasmodium falciparum [10]) | inhibition at 10 µM (Plasmodium falciparum [11]) | IC50 (Plasmodium falciparum [15]) | also measured
Cc1cc(N2CCN(c3ccnc4cc(Cl)ccc34)CC2)n2nc(C)cc2n1 | < 50% | 108% | 4400 nM | – | – | – | – | – | – | – | – | – | –
Cc1cc(N2CCN(c3ccnc4cc(Cl)ccc34)CC2)n2nc(C(F)(F)F)nc2n1 | < 50% | 105% | 7000 nM | – | – | – | – | – | – | – | – | – | –
Cc1cc(Nc2ccc(S(F)(F)(F)(F)F)cc2)n2nc(C(C)(F)F)nc2n1 [DSM-265] | – | < 10% | 4 nM | 12 nM | 3 | – | – | – | – | – | – | – | –
Cc1cc(NCCCCNc2ccnc3cc(Cl)ccc23)n2nc(C)cc2n1 | < 50% | 89.4% | – | – | – | 22% | > 1570 | > 100000 nM | – | – | – | – | –
Cc1cc(NCCCCCCCNc2ccnc3cc(Cl)ccc23)n2nc(C(F)(F)F)nc2n1 | 84% | 16.4% | 400 nM | – | – | 20% | 33 | 13000 nM | 0.8 | 330 nM | 69% | – | IC50 [8]: 4800 nM
CCc1nc(N)nc(N)c1-c1ccc(Cl)cc1 [PYRIMETHAMINE] | – | – | – | – | – | – | – | – | – | – | – | – | Activity (Plasmodium falciparum [12]): inactive; Ratio IC50 [13]: 3
Cc1cc(NCCCCNc2ccnc3cc(Cl)ccc23)n2nc(C(F)(F)F)nc2n1 | < 50% | 80.8% | 310 nM | – | – | 42% | > 81 | > 25000 nM | – | – | 43% | 300 nM | Ratio IC50 (Plasmodium falciparum [14]): 1
Cc1cc(NCCCCCCCNc2ccnc3cc(Cl)ccc23)n2nc(C)nc2n1 | < 50% | 78.8% | 120 nM | 150 nM | 1.3 | 0% | 142 | 17000 nM | 1.4 | 170 nM | 85.8% | 210 nM | IC50 (Plasmodium falciparum [16]): 50 nM; IC50 (Plasmodium falciparum [17]): 180 nM; Ratio IC50 (Plasmodium falciparum [18]): 1.5; Ratio IC50 (Plasmodium falciparum [19]): 0.4
Clc1ccc2c(N3CCN(CCCN4CCN(c5ccnc6cc(Cl)ccc56)CC4)CC3)ccnc2c1 [PIPERAQUINE] | – | – | – | – | – | – | – | – | – | – | – | – | IC50 (Plasmodium falciparum [20]): 60 nM
Cc1cc(NCCCCCCCNc2ccnc3cc(Cl)ccc23)n2ncnc2n1 | < 50% | 73.5% | 110 nM | 230 nM | 2.1 | 30% | 146 | 16000 nM | 2.9 | 320 nM | 2% | 300 nM | IC50 (Plasmodium falciparum [16]): 120 nM; IC50 (Plasmodium falciparum [17]): 200 nM; Ratio IC50 (Plasmodium falciparum [18]): 2.2; Ratio IC50 (Plasmodium falciparum [19]): 1.1

Source: ChEMBL document CHEMBL5505969, “Discovery of new piperaquine hybrid analogs linked by triazolopyrimidine and pyrazolopyrimidine scaffolds with antiplasmodial and transmission blocking activities” (Eur J Med Chem, 2024)
